Target: collagenase from Clostridium histolyticum
Experiment: fluorogenic MMP2 substrate collagenase inhibition assay
Format: biochemical, Hathewaya histolytica

| SMILES | IC50 [µM] |
| --- | --- |
| CC(C)C[C@H](NP(=O)(O)O[C@@H]1O[C@@H](C)[C@H](O)[C@@H](O)[C@H]1O)C(=O)N[C@@H](Cc1c[nH]c2ccccc12)C(=O)O [PRMD, phosphoramidon, reference compound] | 6.9 |
| O=C1c2c(O)cc(O)cc2O[C@H](c2ccc(O)c(O[C@@H]3O[C@H](CO)[C@@H](O)[C@H](O)[C@H]3O)c2)[C@H]1O [compound 9, taxifolin-3′-O-glucoside] | 141 |
| O=C1c2c(O)cc(O)cc2O[C@H](c2ccc(O)c(O)c2)[C@H]1O [compound 4, taxifolin] | 193 |
| OC[C@H]1O[C@@H](Oc2cc(O)cc(/C=C/c3ccc(O)cc3)c2)[C@H](O)[C@@H](O)[C@@H]1O [compound 6, E-piceid] | 259 |
| OC[C@H]1O[C@@H](Oc2cc(O)cc(/C=C/c3ccc(O)c(O)c3)c2)[C@H](O)[C@@H](O)[C@@H]1O [compound 8, E-astringin] | 125 |

Source: paper PMC6272914, “Bio-Guided Isolation of Methanol-Soluble Metabolites of Common Spruce (Picea abies) Bark by-Products and Investigation of Their Dermo-Cosmetic Properties” (Molecules, 2016)
